Laboratory results from patent US12053452B2 (priority 2021, dated 2024).
“Also recorded” adds a separate entry of the source. Structures can show the parent of a compound that is named as a salt. Where two headings read alike, the source gives them in different places.

Columns and labels:
[1] = human urine, after racemic MDMA; cited from earlier work
C57 mice [2] = experiment: Social preference procedure: compartment entries (proxy for locomotor stimulant effects), C57; assay type: in vivo; conditions: 10 mg/kg IP, social novelty test, 10 mg/kg
Procedure: (§1) This assay was conducted in adult male C57 and BTBR mice (n=6 per group) in a dedicated conditioning room where ambient light, sound, and human contact were tightly controlled. Social preference chambers consist of two polycarbonate boxes (13.5 cm wide×22.5 cm tall×31.0 cm deep), floored with rough-textured black ABS plastic, and connected to one another by a 1.25″ PVC T-junction. An infrared photobeam emitter/detector array is mounted at each intersection of the T-junction and each preference compartment, and as a mouse traversed the apparatus, it would break the photobeam upon entry to or exit from each preference compartment. Beam breaks started or stopped a counter on an interfaced computer, allowing automated collection of time spent in each compartment. At the end of each test, data were reported as time (in seconds) spent in each compartment, the number of entries into each compartment, and the average time spent in each compartment following an entry. Social preference tests were conducted in an iterative manner, with each test subject completing four distinct phases as described below. Between testing sessions, chambers were sanitized by wiping the insides with a disinfectant product provided by the UAMS Department of Laboratory Animal Medicine. At the end of the week (upon completion of all phases of the procedure), each apparatus was disassembled and all parts were sanitized. No food or water were available during social preference sessions, but were available in the home cage immediately afterwards.
(§2) Quantification of total entries into the preference compartments provided a proxy measurement for locomotor stimulant effects of the various doses of the various test drugs. This established a limit to the drug doses that can be tested in the social preference procedure, as induction of locomotor stimulant effects confounds preference assessments (because mice stop attending to the social stimuli in each compartment and instead spend their time engaged in locomotor behavior.) Motor activity varied across the distinct phases of social preference testing, in part because the habituation session is twice as long (30 minutes) as the novelty, sociability, and social novelty tests (15 minutes each), but also because mice emitted high levels of exploratory behavior in novel environments. Thus, as familiarity with the test apparatus increased over successive exposures to the chambers, the number of entries decreased.
(§3) (Note that entries were collected for every test, but drug effects on entries during earlier phases may be less reliable due to the confounding influence of changing familiarity with the apparatus across phases.)

BTBR mice [3] = experiment: Social preference procedure: compartment entries (proxy for locomotor stimulant effects), BTBR; assay type: in vivo
Procedure: as §1, §2, §3

C57 mice [4] = experiment: Novelty preference test, C57; assay type: in vivo
Procedure: as §1
A single novelty preference session occurred the day after the habituation test, where one compartment contained an empty wire mesh cup and the other compartment contained an identical wire mesh cup with a novel dummy mouse inside. The position of the dummy mouse (left or right compartment) was counterbalanced across subjects. Dummy mice were constructed from 2.5″ lengths of white ¾″ PVC pipe, with a zip tie attached to one end (to mimic a tail) and two red dots drawn on the other end (to mimic eyes.) During this session, mice were weighed, administered an injection, and returned to their home cage for a 30 min pretreatment period. Mice were then introduced into the T-junction and allowed to explore both preference compartments for 15 minutes. These tests were conducted as a procedural control to ensure that any observed drug effects were not simply due to enhancement of the innate novelty preference of mice. Novelty preference sessions always occurred on Tuesdays or Wednesdays to prevent any weekend testing.

C57 mice [5] = experiment: Sociability test, C57; assay type: in vivo
Procedure: as §1
A single sociability session occurred the day after the novelty preference test, where one compartment contained a wire mesh cup with a dummy mouse inside while the other compartment contained a male NIH Swiss stranger mouse inside the previously empty cup. […] The position of the dummy mouse (left or right compartment) remained the same for each subject as during the novelty test the day before, thereby counterbalancing the position of the stranger mouse across subjects. NIH Swiss stranger mice were similar in mass and appearance to the dummy PVC mice, and were housed separately from the experimental subjects (C57 and BTBR mice) in the colony facility. The first time the experimental subjects ever encountered the stranger mice was when they entered the compartment where they were contained. During this session, mice were weighed, administered the same injection as the day before, and returned to their home cage for a 30 min pretreatment period. Mice were then introduced into the T-junction and allowed to explore both preference compartments for 15 minutes. Sociability tests always occurred on Wednesdays or Thursdays to prevent any weekend testing.

C57 mice [6] = experiment: Social novelty preference test, C57; assay type: in vivo
Procedure: as §1
A single social novelty preference session occurred the day after the sociability test, where one compartment contained a wire mesh cup with the same NIH Swiss mouse from the previous day inside (referred to now as the “familiar” mouse) while the other compartment contained a new male NIH Swiss stranger mouse inside the cup which previously contained the dummy mouse during the sociability test. […] The position of the now familiar NIH Swiss mouse (left or right compartment) remained the same for each subject as during the sociability test the day before, thereby counterbalancing the position of the new NIH Swiss stranger mouse across subjects. As before, the new NIH Swiss stranger mice were housed separately from the experimental subjects (C57 and BTBR mice) in the colony facility, and the first time the experimental subjects ever encountered them was when they entered the compartment where they were contained. During this session, mice were weighed, administered the same injection as the day before, and returned to their home cage for a 30 min pretreatment period. Mice were then introduced into the T-junction and allowed to explore both preference compartments for 15 minutes. Social novelty tests always occurred on Thursdays or Fridays to prevent any weekend testing.

BTBR mice [7] = experiment: Social novelty preference test, BTBR (autism spectrum disorder model); assay type: in vivo; conditions: in vivo mice models of autism spectrum disorder (BTBR)
Procedure: as §1
A single social novelty preference session occurred the day after the sociability test, where one compartment contained a wire mesh cup with the same NIH Swiss mouse from the previous day inside (referred to now as the “familiar” mouse) while the other compartment contained a new male NIH Swiss stranger mouse inside the cup which previously contained the dummy mouse during the sociability test. […]

C57 mice [8] = experiment: Radiotelemetry of core temperature, C57; assay type: in vivo
Procedure: (§4) The radiotelemetry assay was conducted in adult male C57 and BTBR mice (n=6 per group) in a dedicated testing room where ambient light, sound, and human contact were tightly controlled.
(§5) Prior to surgical implantation of radiotelemetry probes, mice received 3 mg/kg meloxicam (IP), and anesthesia was induced with 4% inhaled isoflurane and maintained with 1-3% isoflurane (as needed) throughout the procedure at a flow rate of 1.5 litres/minute. The abdominal area of each animal was treated with depilatory cream, then sanitized with 3 alternating scrubs with iodine and alcohol. A rostral-caudal cut approximately 1.5 cm in length was made with sterile skin scissors, providing access to the intraperitoneal cavity. A cylindrical glass-encapsulated radiotelemetry probe (model ER-4000 E-Mitter, Mini Mitter, Bend, OR, USA) was then inserted. These probes measure 15.5 mm×6.5 mm and weigh approximately 1 gram. Incisions were closed (skin layer and muscle layer separately) using reverse cutting 5-0 Vicryl absorbable sutures for the muscle layer and 5-0 nylon suture material for the skin layer. Surgeries were carried out at least 7 days before initiation of experimental conditions, allowing time for incisions to heal and for animals to recover normal body weights. Following surgery, all implanted mice were individually housed in Plexiglas cages within the telemetry room for the duration of all experiments. Implanted transmitters produce activity- and temperature-modulated signals which are sent to a receiver (model ER-4000 Receiver, Mini Mitter Co., Inc.) underneath each cage. Following use, telemetry probes were removed from carcasses, wiped with alcohol swabs, and stored in the disinfectant solution until re-use.
(§6) At least 7 days after surgical implantation of radiotelemetry probes, mice in their individual home cages were placed atop a telemetry energizer/receiver, which powered probes and transmitted their data to an interfaced computer. Upon initiation of an experimental session, the computer collected two data updates from the probes at 5 min intervals: core temperature (in ° C.) on one channel, and locomotor counts (in arbitrary units, depending on the relative position of the probe atop the receiver) on the other. After at least 60 minutes of baseline data collection, mice were removed from their cages, injected with saline or a given dose of a specific drug, then returned to the home cage 24 hours of data collection.
(§7) Food and water were always freely available in the home cage. Mice were injected with ascending doses of a given drug, with at least 48 hours separating doses. Because there are few studies of drug effects in BTBR mice, the first drug dose tested occasionally elicited unexpectedly large locomotor effects in these animals. In these cases, smaller drug doses were tested next, after a washout period of at least one full day.

BTBR mice [9] = experiment: Radiotelemetry of core temperature, BTBR; assay type: in vivo
Procedure: as §4, §5, §6, §7

BTBR mice [10] = experiment: Radiotelemetry of locomotor activity, BTBR; assay type: in vivo; conditions: 0 to 240 minutes
Procedure: as §4, §5, §6, §7

C57 mice [11] = conditions: mouse, in vivo; for locomotor activity: ip

## CNC(C)Cc1ccc(OS(=O)(=O)O)c(OC)c1 (stereo not shown) [HMMA sulfate]
[1]
  enantiomer with higher Cmax: Higher R-enantiomer Cmax

## CN[C@H](C)Cc1ccc2c(c1)OCO2 [R(−)-MDMA, (2R)-1-(1,3-benzodioxol-5-yl)-N-methylpropan-2-amine]
C57 mice [2]
  compartment entries (locomotor stimulant effect): did not increase compartment entries; also recorded: had no effects on locomotor activity
C57 mice [2]; listed as R-(−) MDMA
  compartment entries (locomotor stimulant effect): no stimulant effect on the motor activity
BTBR mice [3]; 3.0 mg/kg IP, social novelty test, 3 mg/kg
  compartment entries (locomotor stimulant effect): reduced entries; also recorded: suppresses the locomotor activity
BTBR mice [3]; all tested doses IP
  compartment entries (locomotor stimulant effect): do not influence locomotor activity
C57 mice [4]; 10.0 mg/kg IP
  novelty preference (time spent with the dummy mouse): had no effects on locomotor activity (see FIG. 4) or novelty preference
C57 mice [4]; various doses IP
  novelty preference (time spent with the dummy mouse): no systematic effects on novelty preference
C57 mice [5]; 3.0 mg/kg IP
  sociability (time spent with the stranger mouse vs dummy): elicit significant effects on sociability
C57 mice [5]; 10.0 mg/kg IP
  sociability (time spent with the stranger mouse vs dummy): largest effect on sociability
C57 mice [6]; 3.0 mg/kg IP
  social novelty preference (new stranger mouse vs familiar mouse): elicit significant effects on sociability
C57 mice [6]; 10 mg/kg IP, 10 mg/kg
  social novelty preference (new stranger mouse vs familiar mouse): largest effect on social novelty preference
C57 mice [6]; 10 mg/kg IP, listed as R-MDMA, 10 mg/kg
  social novelty preference (new stranger mouse vs familiar mouse): strong preference for the new stranger mouse
BTBR mice [7]
  pro-social behaviour: promotes pro-social behaviour
C57 mice [8]; 10 mg/kg IP
  effect on core temperature: neither of the mixtures (e.g., exemplary composition 2(i)) nor pure R(−)-MDMA (e.g., exemplary composition 7) elicited significant effects on the core temperature
C57 mice [8]; 30 mg/kg IP
  effect on core temperature: neither of the mixtures nor pure R(−)-MDMA elicited significant effects on the core temperature
BTBR mice [9]; 30 mg/kg IP
  effect on core temperature: no significant effects on core temperature were observed
BTBR mice [9]; various/increasing doses IP
  effect on core temperature: did not elicit significant effects on core temperature
BTBR mice [10]; 10 mg/kg IP
  locomotor activity: no significant motor stimulation was observed
BTBR mice [10]; 30 mg/kg IP
  locomotor activity: no significant motor stimulation was observed
C57 mice [11]; 10 mg/kg
  locomotor activity: did elicit significant motor stimulation
C57 mice [11]; 30 mg/kg
  locomotor activity: did not elicit significant motor stimulation

## CN[C@@H](C)Cc1ccccc1 [S(+)-methamphetamine, S-methamphetamine]
C57 mice [11]
  locomotor activity, strain comparison C57 vs BTBR: no significant strain differences observed at any dose
  locomotor effects vs saline: effects were not different from saline

## CC(N)Cc1ccc2c(c1)OCO2 (racemic) [MDA, (±)-3,4-methylenedioxyamphetmaine]
[1]
  enantiomer with higher Cmax: S-enantiomers were higher

## CNC(C)Cc1ccc(OC2OC(C(=O)O)C(O)C(O)C2O)c(OC)c1 (stereo not shown) [HMMA glucuronide]
[1]
  enantiomer with higher Cmax: S-enantiomers were higher

## CN[C@@H](C)Cc1ccccc1 [methamphetamine]
C57 mice [4]; various doses IP
  novelty preference (time spent with the dummy mouse): no systematic effects on novelty preference
C57 mice [5]; various doses IP
  sociability (time spent with the stranger mouse vs dummy): no systematic effects on sociability
C57 mice [6]; various doses IP
  social novelty preference (new stranger mouse vs familiar mouse): no systematic effects on social novelty preference
